US20060229433A1, “Modified antiviral peptides with increased activity and cell membrane affinity” (priority 2003, published 2006)
Where “and” joins values, the source holds several entries; their conditions need not be identical. Equal values may be shown once. Peptide text beside a SMILES is read from it.

Columns and labels:
Format in all cases: cell-based
[1] = test system: HIV-1 NL 4-3; assay: HIV-1 infection of C8166 cells (syncytia formation, p24 ELISA) with HIV-1 NL 4-3; set-up: key to syncitia formed, Day 4 / syncitia formed, Day 5 / syncitia formed, Day 6 / syncitia formed, Day 7: ++, +, (+), (+)− and − represent decreasing numbers of syncitia formed; ++, +, (+), (+)− and − represent decreasing numbers of syncitia formed; ++, +, (+), (+)− and − represent decreasing numbers of syncitia formed; ++, +, (+), (+)− and − represent decreasing numbers of syncitia formed; ++, +, (+), (+)− and − represent decreasing numbers of syncitia formed
Method in brief: (§1)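 Infection was read out as syncytia and as cell-free p24 in supernatants (ELISA) from C8166 cells that received HIV-1 (1000 TCID50/ml, 1 h, 37 °C) after a 1 h peptide pretreatment. Peptide stayed on before, during and after adsorption. Toxicity was checked by daily trypan-blue counts.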

[2] = test system: HIV-1 NL 4-3; assay: as above; set-up: key: ++, +, (+), (+)− and − represent decreasing numbers of syncitia formed; ++, +, (+), (+)− and − represent decreasing numbers of syncitia formed; ++, +, (+), (+)− and − represent decreasing numbers of syncitia formed; ++, +, (+), (+)− and − represent decreasing numbers of syncitia formed; ++, +, (+), (+)− and − represent decreasing numbers of syncitia formed; conditions: Table 6
Method in brief: as §1

[3] = test system: HIV-1 NDK; assay: HIV-1 infection of C8166 cells (syncytia formation, p24 ELISA) with HIV-1 NDK; set-up: key to syncitia formed, Day 4 / syncitia formed, Day 5 / syncitia formed, Day 6 / syncitia formed, Day 7: ++, +, (+), (+)− and − represent decreasing numbers of syncitia formed; ++, +, (+), (+)− and − represent decreasing numbers of syncitia formed; ++, +, (+), (+)− and − represent decreasing numbers of syncitia formed; ++, +, (+), (+)− and − represent decreasing numbers of syncitia formed; ++, +, (+), (+)− and − represent decreasing numbers of syncitia formed; conditions: for P 24: P 24 after Day 7
Method in brief: as §1

[4] = C8166 cells, HIV-1 subtype B NL 4-3, Table 9, two lines = tested twice, 8 days apart

N=C(N)NCCC[C@H](NC(=O)CNC(=O)[C@@H]1CCCN1C(=O)CN)C(=O)O [GPGR, reference compound] (H-GPGR-OH; N-terminus and C-terminus assumed)
2507 pg/mL and 2840 pg/mL: P 24 ([1]; Day 7, 0.5 μM, Table 6)
5810 pg/mL and 10110 pg/mL: P 24 ([1]; Day 7, 0.1 μM, Table 6)
>5 µM: IC100 ([3]; HIV 1 NDK, Table 10)
60 nM and 100 nM: IC50 [1, 4]
500 nM: IC50 ([3]; HIV 1 NDK, Table 10)
316 pg/mL and 343 pg/mL: P 24 ([1]; 1 μM, P 24 after Day 7, C8166 cells)
152 pg/mL: P 24 ([1]; 5 μM, P 24 after Day 7, C8166 cells)
21810 pg/mL and 23870 pg/mL: P 24 ([3]; 0.1 μM)
+: syncitia formed, Day 5 ([1]; 0.01 μM, C8166 cells) | syncitia formed, Day 5 ([1]; 0.05 μM, C8166 cells) | syncitia formed, Day 6 ([1]; 0.05 μM, C8166 cells) | syncitia formed, Day 6 ([1]; 0.1 μM, C8166 cells) | syncitia formed, Day 7 ([1]; 0.1 μM, Day 7, C8166 cells) | syncitia formed, Day 7 ([1]; 0.5 μM, Day 7, C8166 cells) | Day 5 syncitia formed ([2]; 0.01 μM) | Day 5 syncitia formed ([2]; 0.05 μM) | Day 6 syncitia formed ([2]; 0.05 μM) | Day 6 syncitia formed ([2]; 0.1 μM) | Day 7 syncitia formed ([2]; 0.1 μM) | Day 7 syncitia formed ([2]; 0.5 μM) | Day 7 syncitia formed ([2]; 1 μM) | syncitia formed, Day 5 ([3]; 0.005 μM) | syncitia formed, Day 5 ([3]; 0.01 μM) | syncitia formed, Day 5 ([3]; 0.05 μM) | syncitia formed, Day 6 ([3]; 1 μM) | syncitia formed, Day 6 ([3]; 5 μM)
5 µM and >5 µM: IC100 [1, 4]
9810 pg/mL and 15856 pg/mL: P 24 ([3]; 0.5 μM)
23000 pg/mL and 15810 pg/mL: P 24 ([1]; 0.5 μM, P 24 after Day 7, C8166 cells)
++: syncitia formed, Day 6 ([1]; 0.01 μM, C8166 cells) | syncitia formed, Day 7 ([1]; 0.01 μM, Day 7, C8166 cells) | syncitia formed, Day 7 ([1]; 0.05 μM, Day 7, C8166 cells) | Day 5 syncitia formed ([2]; 0.005 μM) | Day 6 syncitia formed ([2]; 0.005 μM) | Day 6 syncitia formed ([2]; 0.01 μM) | Day 7 syncitia formed ([2]; 0.01 μM) | Day 7 syncitia formed ([2]; 0.05 μM) | syncitia formed, Day 6 ([3]; 0.005 μM) | syncitia formed, Day 6 ([3]; 0.01 μM) | syncitia formed, Day 7 ([3]; 0.01 μM) | syncitia formed, Day 6 ([3]; 0.05 μM) | syncitia formed, Day 7 ([3]; 0.05 μM) | syncitia formed, Day 6 ([3]; 0.1 μM) | syncitia formed, Day 7 ([3]; 0.1 μM) | syncitia formed, Day 6 ([3]; 0.5 μM) | syncitia formed, Day 7 ([3]; 0.5 μM) | syncitia formed, Day 7 ([3]; 1 μM) | syncitia formed, Day 7 ([3]; 5 μM)
++/T: Day 7 syncitia formed ([1]; 0.005 μM, Table 6) | syncitia formed, Day 7 ([3]; 0.005 μM)
9870 pg/mL and 13890 pg/mL: P 24 ([3]; 1 μM)
23810 pg/mL: P 24 ([1]; 0.01 μM, P 24 after Day 7, C8166 cells) | P 24 ([1]; Day 7, 0.005 μM, Table 6) | P 24 ([1]; Day 7, 0.01 μM, Table 6) | P 24 ([3]; 0.005 μM) | P 24 ([3]; 0.01 μM) | P 24 ([3]; 0.05 μM)
−: syncitia formed, Day 4 ([1]; 0.1 μM, C8166 cells) | syncitia formed, Day 4 ([1]; 0.5 μM, C8166 cells) | syncitia formed, Day 5 ([1]; 0.5 μM, C8166 cells) | syncitia formed, Day 6 ([1]; 0.5 μM, C8166 cells) | syncitia formed, Day 4 ([1]; 1 μM, C8166 cells) | syncitia formed, Day 5 ([1]; 1 μM, C8166 cells) | syncitia formed, Day 6 ([1]; 1 μM, C8166 cells) | syncitia formed, Day 4 ([1]; 5 μM, C8166 cells) | syncitia formed, Day 5 ([1]; 5 μM, C8166 cells) | syncitia formed, Day 6 ([1]; 5 μM, C8166 cells) | Day 4 syncitia formed ([2]; 0.005 μM) | Day 4 syncitia formed ([2]; 0.01 μM) | Day 4 syncitia formed ([2]; 0.05 μM) | Day 4 syncitia formed ([2]; 0.1 μM) | Day 4 syncitia formed ([2]; 0.5 μM) | Day 5 syncitia formed ([2]; 0.5 μM) | Day 6 syncitia formed ([2]; 0.5 μM) | Day 4 syncitia formed ([2]; 1 μM) | Day 5 syncitia formed ([2]; 1 μM) | Day 6 syncitia formed ([2]; 1 μM) | Day 4 syncitia formed ([2]; 5 μM) | Day 5 syncitia formed ([2]; 5 μM) | Day 6 syncitia formed ([2]; 5 μM) | Day 7 syncitia formed ([2]; 5 μM) | syncitia formed, Day 4 ([3]; 0.005 μM) | syncitia formed, Day 4 ([3]; 0.01 μM) | syncitia formed, Day 4 ([3]; 0.05 μM) | syncitia formed, Day 4 ([3]; 0.1 μM) | syncitia formed, Day 4 ([3]; 0.5 μM) | syncitia formed, Day 4 ([3]; 1 μM) | syncitia formed, Day 5 ([3]; 1 μM) | syncitia formed, Day 4 ([3]; 5 μM) | syncitia formed, Day 5 ([3]; 5 μM)
13810 pg/mL and 12980 pg/mL: P 24 ([1]; 0.05 μM, P 24 after Day 7, C8166 cells)
(+): syncitia formed, Day 4 ([1]; 0.01 μM, C8166 cells) | syncitia formed, Day 4 ([1]; 0.05 μM, C8166 cells) | syncitia formed, Day 5 ([1]; 0.1 μM, C8166 cells) | syncitia formed, Day 7 ([1]; 1 μM, Day 7, C8166 cells) | syncitia formed, Day 7 ([1]; 5 μM, Day 7, C8166 cells) | Day 5 syncitia formed ([2]; 0.1 μM) | syncitia formed, Day 5 ([3]; 0.1 μM) | syncitia formed, Day 5 ([3]; 0.5 μM)
